The values that follow come from ChEMBL document CHEMBL3860022, “Do cinnamylideneacetophenones have antioxidant properties and a protective effect toward the oxidation of phosphatidylcholines?” (Eur J Med Chem, 2016).

By IC50 is commonly meant the midpoint of a concentration-inhibition curve.

What all share (format): functional
Assay [1] can be described thus: Antioxidant activity assessed as AAPH free radical scavenging activity measured every min during 240 mins by fluorescein-based oxygen radical absorption capacity assay.
A short description of assay [2]: Antioxidant activity assessed as DPPH free radical scavenging activity after 60 mins. Background: DPPH is a stable violet radical that fades when it is reduced.
Assay [3] can be described thus: Antioxidant activity assessed as AAPH free radical scavenging activity by measuring trolox equivalent at 1.5 to 35 umol/L measured every min during 240 mins by fluorescein-based oxygen radical absorption capacity assay.
The nature of assay [4]: Antioxidant activity assessed as inhibition of fenton reaction-mediated PLPC peroxidation at 2 mg/ml incubated in dark for 1 hr by mass spectroscopic analysis.
Assay [5] can be described thus: Antioxidant activity assessed as inhibition of fenton reaction-mediated PLPC peroxidation by measuring ratio of oxidized PLPC/unmodified PLPC at 2 mg/ml incubated in dark for 1 hr to 7 days by mass spectroscopic analysis.
The nature of assay [6]: Antioxidant activity assessed as AAPH free radical scavenging activity by measuring trolox equivalent at 0.5 to 10 umol/L measured every min during 240 mins by fluorescein-based oxygen radical absorption capacity assay.
Assay [7] in a line: Antioxidant activity assessed as inhibition of fenton reaction-mediated PLPC peroxidation at 2 mg/ml incubated in dark for 3 days by mass spectroscopic analysis.
Assay [8] in a line: Antioxidant activity assessed as DPPH free radical scavenging activity by measuring trolox equivalent at 1.5 to 35 umol/L after 60 mins.
Assay [9] is described as follows: Antioxidant activity assessed as inhibition of fenton reaction-mediated PLPC peroxidation by measuring ratio of [dMPC + H]+/[PLPC + H]+ at 2 mg/ml incubated in dark for 1 hr to 7 days by mass spectroscopic analysis.
The nature of assay [10]: Antioxidant activity assessed as inhibition of fenton reaction-mediated PLPC peroxidation by measuring ratio of oxidized PLPC/unmodified PLPC at 1 mg/ml incubated in dark for 1 hr to 7 days by mass spectroscopic analysis.
Assay [11] is described as follows: Antioxidant activity assessed as AAPH free radical scavenging activity by measuring trolox equivalent at 12.5 to 100 umol/L measured every min during 240 mins by fluorescein-based oxygen radical absorption capacity assay.
The nature of assay [12]: Antioxidant activity assessed as inhibition of fenton reaction-mediated PLPC peroxidation at 1 mg/ml incubated in dark for 3 days by mass spectroscopic analysis.
Assay [13] in a line: Antioxidant activity assessed as inhibition of fenton reaction-mediated PLPC peroxidation by measuring ratio of [dMPC + H]+/[PLPC + H]+ at 1 mg/ml incubated in dark for 1 hr to 7 days by mass spectroscopic analysis.
Assay [14] in a line: Antioxidant activity assessed as AAPH free radical scavenging activity by measuring trolox equivalent at 75 to 350 umol/L measured every min during 240 mins by fluorescein-based oxygen radical absorption capacity assay.
The nature of assay [15]: Antioxidant activity assessed as inhibition of fenton reaction-mediated PLPC peroxidation by measuring ratio of dMPC/unmodified PLPC at 1 mg/ml incubated in dark for 1 hr to 7 days by mass spectroscopic analysis.
A short description of assay [16]: Antioxidant activity assessed as DPPH free radical scavenging activity by measuring trolox equivalent at 10 to 100 umol/L after 60 mins.
Assay [17] can be described thus: Antioxidant activity assessed as DPPH free radical scavenging activity by measuring trolox equivalent at 5 to 35 umol/L after 60 mins.

Calls of active or inactive are those of the source. The calls are words filed in the database; no cut-off is given here.

`Cc1c(C)c2c(c(C)c1O)CCC(C)(C(=O)O)O2` (stereo not given) [TROLOX]: the IC50 in assay [1] amounted to 4.2 µM; in assay [2], 52.2 µM.

Turning to `O=C(/C=C/C=C/c1ccccc1)c1ccc(O)cc1`, the Activity in [3] is 4.1 equiv.

`COc1cc(/C=C/C(=O)CC(=O)/C=C/c2ccc(O)c(OC)c2)ccc1O` [CURCUMIN]: the inhibition entry in assay [4], in [5], in assay [7] and in assay [9] was “Active” each time. The figures for the IC50 in [1] and in assay [2] were 1.8 µM and 32.5 µM, respectively. Moreover, the Activity in assay [6] is 3.9 equiv; in assay [8], 1.42 equiv.

Turning to `COc1ccc(/C=C/C=C/C(=O)c2ccccc2)cc1`, the inhibition result in [10], in assay [12] and in assay [13] was “Active” in each case. In addition, the Activity in assay [11] came to 0.17 equiv.

As for `O=C(/C=C/C=C/c1ccccc1)c1ccccc1`, the inhibition result in [10] and in [15] was “Active” in each case. Moreover, in assay [14], the Activity turned out to be 0.06 equiv.

Turning to `O=C(/C=C/c1ccccc1)c1ccccc1`, the Activity in [14] was determined as 0.049 equiv.

`O=C(/C=C/C=C/c1ccc(O)cc1)c1ccccc1`: the inhibition entry in [10] and in [15] was “Active” each time. The figures for the IC50 in assay [1] and in assay [2] were 1.2 µM and 32.5 µM, respectively. The figures for the Activity in assay [16] and in assay [3] were 0.29 equiv and 4.8 equiv, respectively.

For `COc1ccc(C(=O)/C=C/C=C/c2ccccc2)cc1`, the Activity in assay [11] came out at 0.12 equiv.

As for `N#CC(C#N)C(/C=C/c1ccccc1)CC(=O)c1ccccc1` (stereo not given), the IC50 in assay [1] was 3.3 µM; in [2], 74 µM. For the same molecule, the Activity stood at 0.9 equiv in assay [17] and 2.7 equiv in [3].
